Experimental data: US8916599B2, “1H-benz imidazole-5-carboxamides as anti-inflammatory agents” (Orexo AB, priority 2008, dated 2014)

What follows are compounds tested against T1, recombinant human mPGES-1 (Homo sapiens, UniProt O14684) (assay: mPGES-1 inhibition test (microsomes, PGH2 substrate, HTRF detection of PGE2)). Conditions: inhibition of mPGES-1 at 10 μM.
T1 construct: made in house; host or cells: Rosetta E. coli (microsomal/membrane fraction)
T1 sequence (O14684 1-152): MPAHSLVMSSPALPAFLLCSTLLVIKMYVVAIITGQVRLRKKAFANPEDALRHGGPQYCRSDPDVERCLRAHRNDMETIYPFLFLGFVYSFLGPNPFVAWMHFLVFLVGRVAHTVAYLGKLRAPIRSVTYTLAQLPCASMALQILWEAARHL
Format: biochemical
How it was run: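 Bacterial microsomes with GSH-containing phosphate buffer at pH 7.4 are exposed to test compounds for 25 minutes before a one-minute PGH2 conversion. The quenched, 750-fold diluted mixture is analysed by time-resolved FRET for PGE2.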

Cn1c(Nc2c(F)cccc2Cl)nc2cc(C(=O)NC3CCC(C(C)(C)C)CC3)c(F)cc21 (stereo not shown) [Example 354, N-(4-tert.-Butylcyclohexyl)-2-(2-chloro-6-fluorophenylamino)-6-fluoro-1-methyl-1H-benzimidazole-5-carboxamide] and Cn1c(Nc2c(Cl)cccc2Cl)nc2cc(C(=O)N[C@H]3CC[C@H](C(F)(F)F)CC3)c(F)cc21 [Example 158, 2-(2,6-Dichloro-phenylamino)-6-fluoro-1-methyl-1H-benzimidazole-5-carboxylic acid (trans-4-trifluoromethyl-cyclohexyl)-amide] are the same in inhibition at 10 µM: 100% for the first, 100% for the second.

O=C(Nc1cc(Cl)ccn1)c1cc(Br)c2[nH]c(Nc3c(Cl)cccc3Cl)nc2c1 [Example 500, 7-Bromo-N-(4-chloropyridin-2-yl)-2-(2,6-dichlorophenylamino)-1H-benzimidazole-5-carboxamide] and Cn1c(Nc2c(Cl)cccc2Cl)nc2cc(C(=O)Nc3cc(Cl)ccn3)ccc21 [Example 210, 2-(2,6-Dichloro-phenylamino)-1-methyl-1H-benzimidazole-5-carboxylic acid (4-chloro-pyridin-2-yl)-amide] are the same in inhibition at 10 µM: 100% for the first, 100% for the second.

Compared with Cc1cc2[nH]c(Nc3c(Cl)cccc3Cl)nc2cc1C(=O)Nc1ccc(C(C)(C)C)cc1 [Example 122, 2-(2,6-Dichloro-phenylamino)-6-methyl-1H-benzimidazol-5-carboxylic acid (4-tert.-butyl-phenyl)-amide], O=C(Nc1ccc(Br)cc1)c1cc2nc(Nc3c(Cl)cccc3Cl)[nH]c2cc1OCC(F)(F)F [Example 590, 2-(2,6-Dichloro-phenylamino)-N-(4-bromo-phenyl)-6-(2,2,2-trifluoroethoxy)-1H-benzimidazole-5-carboxamide] is lower in inhibition at 10 µM: 99% for the first, 96% for the second.

Compared with Cn1c(Nc2c(Cl)cccc2Cl)nc2cc(C(=O)NC3CCCCC3)ccc21 [compound 317], Cc1ccc(NC(=O)c2ccc3c(c2)nc(Nc2c(Cl)cccc2Cl)n3C)nc1 [Example 327, 2-(2,6-Dichloro-phenylamino)-1-methyl-1H-benzimidazole-5-carboxylic acid (5-methyl-pyridin-2-yl)-amide] is higher in inhibition at 10 µM: 98% for the first, 100% for the second.

Compared with COc1cc2c(cc1C(=O)NCc1ccccc1C(F)(F)F)nc(Nc1c(Cl)cccc1Cl)n2C [Example 136, 2-(2,6-Dichloro-phenylamino)-6-methoxy-1-methyl-1H-benzimidazole-5-carboxylic acid 2-trifluoromethyl-benzylamide], COc1cc2c(cc1C(=O)NCc1ncccc1OC)nc(Nc1c(Cl)cccc1Cl)n2C [Example 491, 2-(2,6-Dichlorophenylamino)-6-methoxy-N-((3-methoxypyridin-2-yl)-methyl)-1-methyl-1H-benzimidazole-5-carboxamide] is higher in inhibition at 10 µM: 98% for the first, 99% for the second.

CCC1CCC(NC(=O)c2cc3nc(Nc4c(F)cccc4Cl)n(C)c3cc2F)C1 (stereo not shown) [Example 392, 2-(2-Chloro-6-fluorophenylamino)-N-(3-ethylcyclopentyl)-6-fluoro-1-methyl-1H-benzimidazole-5-carboxamide] and CCC1CCC(NC(=O)c2cc3nc(Nc4c(Cl)cccc4Cl)n(C)c3cc2F)C1 (stereo not shown) [Example 412, 2-(2,6-Dichlorophenylamino)-N-(3-ethylcyclopentyl)-6-fluoro-1-methyl-1H-benzimidazole-5-carboxamide] are the same in inhibition at 10 µM: 100% for the first, 100% for the second.

Compared with O=C(N[C@H]1CC[C@H](C(F)(F)F)CC1)c1cc2nc(Nc3c(F)ccc(F)c3Cl)[nH]c2cc1OCC(F)(F)F [Example 594, 2-(2-Chloro-3,6-difluoro-phenylamino)-N-(4-trans-trifluoromethyl-cyclohex-1-yl)-6-(2,2,2-trifluorethoxy)-1H-benzimidazole-5-carboxamide], CC(C)Oc1cc2[nH]c(Nc3c(Cl)ccc(Cl)c3F)nc2cc1C(=O)NC1CCC(C(F)(F)F)CC1 (stereo not drawn) [Example 620, 2-(3,6-Dichloro-2-fluoro-phenylamino)-6-isopropoxy-N-(4-trans-trifluoromethyl-cyclohex-1-yl)-1H-benzimidazole-5-carboxamide] is higher in inhibition at 10 µM: 94% for the first, 100% for the second.

Compared with O=C(Nc1ccccc1)c1ccc2[nH]c(Nc3c(Cl)cccc3Cl)nc2c1 [Example 1, 2-(2,6-Dichloro-phenylamino)-1H-benzimidazole-5-carboxylic acid phenylamide], Cc1ccccc1NC(=O)c1ccc2[nH]c(Nc3c(Cl)cccc3Cl)nc2c1 [Example 3, 2-(2,6-Dichloro-phenylamino)-1H-benzimidazole-5-carboxylic acid o-tolylamide] is lower in inhibition at 10 µM: 100% for the first, 95% for the second.

First: Cn1c(Nc2ccc(C(F)(F)F)cc2Cl)nc2cc(C(=O)Nc3ccc(Br)cc3)ccc21 [Example 556, N-(4-Bromophenyl)-2-(2-chloro-4-trifluoromethyl-phenylamino)-1-methyl-1H-benzimidazole-5-carboxamide]
Second: Cc1cc(Cl)cc(Cl)c1Nc1nc2cc(C(=O)Nc3ccc(Br)cc3)ccc2n1C [Example 402, N-(4-Bromophenyl)-2-(2,4-dichloro-6-methylphenylamino)-1-methyl-1H-benzimidazole-5-carboxamide]
The inhibition at 10 µM of the first is lower: 74% for the first, 100% for the second.

Going from O=C(Nc1ccc(Cl)cn1)c1ccc2[nH]c(Nc3c(Cl)cccc3Cl)nc2c1 [Example 74, 2-(2,6-Dichloro-phenylamino)-1H-benzimidazole-5-carboxylic acid (5-chloro-pyridin-2-yl)-amide] to O=C(NCc1ccc(Cl)cc1)c1ccc2[nH]c(Nc3c(Cl)cccc3Cl)nc2c1 [Example 309, 2-(2,6-Dichloro-phenylamino)-1H-benzimidazole-5-carboxylic acid 4-chloro-benzylamide], the inhibition at 10 µM rises from 97% to 98%.

COc1cc2[nH]c(Nc3c(Cl)ccc(Cl)c3F)nc2cc1C(=O)NC1CCC(C)(C)CC1 [Example 616, 2-(3,6-Dichloro-2-fluoro-phenylamino)-N-(4,4-dimethyl-cyclohex-1-yl)-6-methoxy-1H-benzimidazole-5-carboxamide] and CC(C)(C)[C@H]1CC[C@@H](NC(=O)c2cc3nc(Nc4c(Cl)cccc4Cl)[nH]c3cc2F)CC1 [Example 374, N-((1s,4s)-4-tert.-Butylcyclohexyl)-2-(2,6-dichlorophenylamino)-6-fluoro-1H-benzimidazole-5-carboxamide] are the same in inhibition at 10 µM: 100% for the first, 100% for the second.

First: C[C@@H]1CCC(NC(=O)c2cc3nc(Nc4c(Cl)cccc4Cl)n(C)c3cc2F)C1 (stereo partly drawn) [Example 175, 2-(2,6-Dichloro-phenylamino)-6-fluoro-1-methyl-1H-benzimidazole-5-carboxylic acid ((3R)-3-methyl-cyclopentyl)-amide]
Second: CCC1CCC(NC(=O)c2cc3nc(Nc4c(Cl)cccc4Cl)n(C)c3cc2F)CC1 (stereo not shown) [Example 437, 2-(2,6-Dichlorophenylamino)-N-(4-ethylcyclohexyl)-6-fluoro-1-methyl-1H-benzimidazole-5-carboxamide]
The inhibition at 10 µM of the first is higher: 100% for the first, 97% for the second.

Compared with Cn1c(NC(=O)c2ccc3[nH]c(Nc4c(Cl)cccc4Cl)nc3c2)nc2ccccc21 [Example 81, 2-(2,6-Dichloro-phenylamino)-1H-benzimidazole-5-carboxylic acid (1-methyl-benzimidazol-2-yl)-amide], N#Cc1cccc(NC(=O)c2ccc3[nH]c(Nc4c(Cl)cccc4Cl)nc3c2)c1 [Example 22, 2-(2,6-Dichloro-phenylamino)-1H-benzimidazole-5-carboxylic acid (3-cyano-phenyl)-amide] is higher in inhibition at 10 µM: 84% for the first, 100% for the second.

First: Cn1c(Nc2c(F)cccc2Cl)nc2cc(C(=O)NCCC3CC3)c(F)cc21 [Example 502, 2-(2-Chloro-6-fluorophenylamino)-N-(2-cyclopropylethyl)-6-fluoro-1-methyl-1H-benzimidazole-5-carboxamide]
Second: Cn1c(CNC(=O)c2cc3nc(Nc4c(Cl)cccc4Cl)n(C)c3cc2F)nc2ccccc21 [Example 563, 2-(2,6-Dichlorophenylamino)-6-fluoro-1-methyl-N-((1-methyl-1H-benzo[d]imidazol-2-yl)methyl)-1H-benzimidazole-5-carboxamide]
The inhibition at 10 µM of the first is higher: 96% for the first, 75% for the second.

First: O=C(Nc1ccc(Br)cc1)c1ccc2[nH]c(Nc3cccc(Cl)c3C(F)(F)F)nc2c1 [Example 333, 2-(3-Chloro-2-trifluoromethyl-phenylamino)-1H-benzimidazole-5-carboxylic acid (4-bromo-phenyl)-amide]
Second: O=C(Nc1ccccc1)c1ccc2[nH]c(Nc3ccccc3C(F)(F)F)nc2c1 [Example 6, 2-(2-Trifluoromethyl-phenylamino)-1H-benzimidazole-5-carboxylic acid-phenylamide]
The inhibition at 10 µM of the first is lower: 94% for the first, 99% for the second.

Compared with O=C(NCC1CCCOC1)c1ccc2[nH]c(Nc3c(Cl)cccc3Cl)nc2c1 (stereo not shown) [Example 227, 2-(2,6-Dichloro-phenylamino)-1H-benzimidazole-5-carboxylic acid (tetrahydro-pyran-3-ylmethyl)-amide], O=C(N[C@H]1CC[C@H](C(F)(F)F)CC1)c1ccc2[nH]c(Nc3c(Cl)cccc3Cl)nc2c1 [Example 161, 2-(2,6-Dichloro-phenylamino)-1H-benzimidazole-5-carboxylic acid (trans-4-trifluoromethyl-cyclohexyl)-amide] is higher in inhibition at 10 µM: 77% for the first, 98% for the second.

Work on Cc1nc(NC(=O)c2cc3nc(Nc4c(Cl)cccc4Cl)n(C)c3cc2F)cc2c1CCCC2 [Example 131, 2-(2,6-Dichloro-phenylamino)-6-fluoro-1-methyl-1H-benzimidazole-5-carboxylic acid (1-methyl-5,6,7,8-tetrahydro-isoquinolin-3-yl)-amide] yielded an inhibition at 10 µM of 96%.

“N-(4-Bromophenyl)-1-methyl-2-(2-(4-morpholino)phenylamino)-1H-benzimidazole-5-carboxamide [Example 555]” was tested, and the “% inhib.” value was 70%.
